Data as given in patent US20210401708A1, “Skin Anti-Aging Composition Containing Irilin B” (PHYTO CORPORATION INC., priority 2018, published 2021).

How the values were obtained:
[1] = system: Collagenase isolated from mouse pancreases; test: Measurement of anti-collagenase activity; assay type: biochemical
Experimental: Collagenase, used in the measurement of enzyme activity, was isolated from mouse pancreases. The synthetic peptide, N-(3-[2-Furyl]acryloyl)-Leu-Gly-Pro-Ala, was used as a substrate compound for an enzymatic reaction. A solution containing 50 mM Tricine, 10 mM CaCl2.H2O, and 400 mM NaCl (pH 7.5) dissolved therein was used as a buffer solution. The synthetic substrate was dissolved to a concentration of […] in the buffer solution, and then finally diluted to 75 μM. Collagenase was dissolved to a concentration of 1 unit/ml in tertiary distilled water at 4° C. Upon the test, the collagenase diluted to a final concentration of 0.05 unit/ml in the buffer solution was used. […] In addition, the concentration of retinol (Sigma Co.), which was a positive control known as an anti-collagenase substance, was 10 μg/ml or 20 μg/ml in the test. The reaction was carried out in 96-well UV plates (Corning Co.) at room temperature for 10 minutes. The absorbance was measured at 345 nm at intervals of 1 minute using a microplate spectrophotometer (Bio-Rad). The enzyme activity was determined by obtaining the maximal slope of absorbance over time. All enzymatic reactions were repeatedly carried out three times, and expressed as average values. The anti-collagenase activity was calculated as below:
Anti-collagenase activity (%)=[(absolute value of slope in control−absolute value of slope in test sample)/absolute value of slope in control]×100 [Calculation Formula]

[2] = target: T1, elastase isolated from human leukocytes (Homo sapiens, UniProt P08246); test: Measurement of anti-elastase activity; assay type: biochemical
T1 construct: The elastase isolated from human leukocytes were used; from tissue; host or cells: human leukocytes
T1 sequence (P08246 30-267): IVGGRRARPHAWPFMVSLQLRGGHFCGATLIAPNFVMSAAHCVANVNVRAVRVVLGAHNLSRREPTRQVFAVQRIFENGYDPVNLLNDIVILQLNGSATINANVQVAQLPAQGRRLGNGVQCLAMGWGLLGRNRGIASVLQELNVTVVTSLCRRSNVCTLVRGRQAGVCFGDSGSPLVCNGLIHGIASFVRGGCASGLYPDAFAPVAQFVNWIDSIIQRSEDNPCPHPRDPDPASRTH
Experimental: The anti-elastase activity (elastase being an elastin degradation enzyme) was tested as below. The elastase isolated from human leukocytes were used. The synthetic oligopeptide, MeOSuc-Ala-Ala-Pro-Val-pNA, was used as a substrate of an enzyme reaction. A 100 mM Tris (pH 7.5) solution was used as a buffer solution. Elastase was finally used at 0.2 mU using the buffer solution. In addition, the synthetic substrate of elastase was made into a 100 mM solution using […], and then diluted to a final concentration of 0.5 mM in the buffer solution. […] The concentration of quercetin (Sigma Co.), which was a positive control known as an anti-elastase substance, was 10 μg/ml or 20 μg/ml in the test. The reaction was carried out in 96-well UV plates (Corning Co.) at room temperature for 20 minutes. The absorbance was measured at 405 nm at intervals of 1 minute using a microplate spectrophotometer (Bio-Rad). The enzyme activity was determined by obtaining the maximal slope of absorbance over time. All enzymatic reactions were repeatedly carried out three times, and expressed as average values. The […] was calculated as below:
Anti-elastase activity (%)=[(absolute value of slope in control−absolute value of slope in test sample)/absolute value of slope in control]×100 [Calculation Formula]

aquaporin 3 (AQP3) = test: Expression level of skin moisturizing factor AQP3 in UVA-irradiated HaCaT cells (RT-PCR); assay type: cell-based, human
Experimental: (§1) In order to investigate the expression levels of aquaporin 3 (AQP3) and hyaluronic acid synthase 2 (HAS2), which are moisturizing factors involved in the migration of cell moisture, the test was performed using the human skin keratinocytes HaCaT cells (Korean Cell Line Bank). The HaCaT cells were incubated in Dulbecco's modified Eagle's medium (DEME, Gibco 1210-0038) containing 10% FBS. Cell incubation was carried out using a 5% CO2 incubator at 37° C. After the cells were treated with Irilin B and ultraviolet light (aging treatment: UVA: 5 J/cm^2), the levels of AQP3 and HAS2 expressed in the cells were measured. The expression levels were measured by extracting RNA from the HaCaT cells and performing real-time polymerase change reaction (RT-PCR). The test substance Irilin B was treated after UVA irradiation. Irilin B was in advance prepared into a 10 mg/ml stock solution by addition of DMEM. Upon the test, the cells were treated with the stock solution diluted to 1/1,000 to 1/500. […]
(§2) The gene expression test (RNA extraction and real-time polymerase chain reaction (PCR)) was performed in the following order:
(§3) i) RNA was extracted using TRIzol Reagent (Gibco, USA).
(§4) ii) The cDNA synthesis from the extracted RNA was performed using the ReverTra Ace reverse transcriptase kit (Toyobo, USA). […]

[3] = system: hyaluronic acid synthase 2 (HAS2); test: Expression level of skin moisturizing factor HAS2 in UVA-irradiated HaCaT cells (RT-PCR); assay type: cell-based, human; settings: UVA 5 J/cm^2, 10, 20, 40 μg/ml, 24 hours
Experimental: as §1, §2, §3, §4

Human skin keratinocytes = test: Keratinocyte differentiation promoting effect; assay type: cell-based; settings: for Cell differentiation promoting effect (%): vs distilled water (0%)
Experimental: Human skin keratinocytes (Korean Cell Line Bank) were seeded in the CO2 incubation flask in which DMEM containing 10% FBS was placed. After the cells were grown to a confluency of about 80%, Irilin B at different concentrations (5, 10, 20, 50, 100 μg/ml) were added to the cells, followed by incubation for 3 days. Thereafter, the cells were treated with a reduction modifier, such as sodium dodecyl sulfate (SDS) and β-mercaptoethanol, to remove proteins. After the treatment, the remaining keratinocyte layer was suspended in distilled water, and then the absorbance was measured at 310 nm to analyze the peptide concentration. The increase by each sample was compared on the basis of the negative control, distilled water (0%). In the positive control, the cells were treated with 10 nM TGF-β known as a cell differentiation factor. All the tests of keratinocyte differentiation promoting effect were repeatedly carried out three times. The absorbance at 310 nm is expressed as a mean and standard deviation, and the cell differentiation promoting effect is expressed, using the following calculation formula, as an average value (%), in Table 4.
Cell differentiation promoting effect (%)=(absorbance value at 310 nm in test sample−absorbance value at 310 nm in negative control)×100 [Calculation Formula]

[4] = both at 20 μg/ml, same conditions

Compound	Anti-collagenase activity (%) ([1]; 10 μg/ml)	Enzyme activity (Absolute value of maximal slope of absorbance over time at 345 nm) ([1]; 10 μg/ml)	Anti-collagenase activity (%) ([1]; 20 μg/ml)	Enzyme activity (Absolute value of maximal slope of absorbance over time at 345 nm) ([1]; 20 μg/ml)	Enzyme activity (Absolute value of maximal slope of absorbance over time at 405 nm) ([2]; 10 μg/ml)	inhibition at 10 µg/mL ([2]; 10 μg/ml) [%]	Enzyme activity (Absolute value of maximal slope of absorbance over time at 405 nm) ([2]; 20 μg/ml)	inhibition at 20 µg/mL ([2]; 20 μg/ml) [%]	also measured
COc1c(O)cc2occ(-c3ccccc3O)c(=O)c2c1O [Irilin B, 5,7,2′-trihydroxy-6-methoxyisoflavone]	49.38	0.41	62.96	0.30	0.72	42.9	0.54	57.1	Anti-collagenase activity (%) ([1]; 5 μg/ml): 33.33%; Enzyme activity (Absolute value of maximal slope of absorbance over time at 345 nm) ([1]; 5 μg/ml): 0.54; anti-collagenase activity compared with retinol [1, 4]: about 2.05 fold; Enzyme activity (Absolute value of maximal slope of absorbance over time at 405 nm) ([2]; 5 μg/ml): 0.85; inhibition at 5 µg/mL ([2]; 5 μg/ml): 32.5%; anti-elastase activity compared with quercetin [2, 4]: about 1.47 fold; expression level of AQP3 after UVA irradiation (FIG. 1) (aquaporin 3 (AQP3); UVA 5 J/cm^2, 40 μg/ml): again increased to a level in the control irradiated without UVA; expression of AQP3 after UVA irradiation (FIG. 1) (aquaporin 3 (AQP3); UVA 5 J/cm^2, 10, 20, 40 μg/ml, 24 hours): restored the UVA-reduced level of AQP3 in a dose dependent manner; expression of HAS2 after UVA irradiation (FIG. 2) [3]: again restored to a level in the normal control; Cell differentiation promoting effect (%) (Human skin keratinocytes; 10 μg/ml, 3 days): 28.2%; Cell differentiation promoting effect (%) (Human skin keratinocytes; 20 μg/ml, 3 days): 46.7%; Cell differentiation promoting effect (%) (Human skin keratinocytes; 50 μg/ml, 3 days): 95.3%; cell differentiation promoting effect compared with positive control (in words) (Human skin keratinocytes; 100 μg/ml vs TGF-β 10 nM): equivalent to the cell differentiation factor TGF-β (10 nM); Cell differentiation promoting effect (%) (Human skin keratinocytes; 100 μg/ml, 3 days): 142.4%; differentiation of keratinocytes (in words) (Human skin keratinocytes; 5, 10, 20, 50, and 100 μg/ml): promoted the differentiation of keratinocytes
O=c1c(O)c(-c2ccc(O)c(O)c2)oc2cc(O)cc(O)c12 [Quercetin, quercetin, reference compound]	–	–	–	–	0.88	30.2 ± 3.14	0.77	38.9	–
CC1=C(/C=C/C(C)=C/C=C/C(C)=C/CO)C(C)(C)CCC1 [Retinol, reference compound]	17.28 ± 0.85	0.67	30.86	0.56	–	–	–	–	–
transforming growth factor-β (TGF-β)	–	–	–	–	–	–	–	–	Cell differentiation promoting effect (%) (Human skin keratinocytes; 10 nM): 144.7%
